The values below come from the SangsterLogP compilation.

Usually logP stands for the decadic logarithm of the partition coefficient of the neutral form, usually between octanol and water.

Assay in data set [1]: not given
The source holds these as a separate data set.

The compound `c1ccc(-c2ccncc2)cc1` came in with a log partition coefficient (logP) of 2.58. The same measure, in the same setting: with `c1ccc(-c2cnc3ccccc3n2)cc1` the figure was 3.48; with `O=C1CCc2ccccc2N1`, 1.34; with `O=C1NC(=O)c2cc(-c3ccccc3)ccc21`, 2.97. As for `c1ccc(-c2nc3ccccc3[nH]2)cc1`, the logP amounted to 3.3. The same measure, in the same setting: as for `c1ccc(-c2nc3ccccc3o2)cc1`, the figure is 3.67. On the same count and under the same terms, with `c1ccc(C2CCNCC2)cc1` the figure was 2.39. On the same count and under the same terms, as for `O=c1[nH]nc(-c2ccccc2)c2ccccc12`, the figure is 2.48. `O=C1Nc2ccccc2CC1c1ccccc1` (stereo unspecified) came in with a logP of 2.93. In the case of `O=C1CC(c2ccccc2)c2ccccc2N1` (stereo unspecified), the lipophilicity (logP) worked out at 2.79.

`c1ccc(-c2nccs2)cc1`: the lipophilicity (logP) was found to be 2.77. Compound `O=C1CCC(c2ccccc2)CC1` came in with a logP of 2.3.

Consider `O=c1[nH]cnc2ccccc12`, for which the lipophilicity (logP) in data set [1] was determined as 0.77. Turning to `O=C1Nc2ccccc2C1c1ccccc1` (stereo unspecified), the logP worked out at 2.59. Compound `c1ccc(-c2ncc3ccccc3n2)cc1` gave a logP of 3.42. Still for that read-out and setting: with `c1ccc(-c2c[nH]nn2)cc1` the figure was 1.91. On the same count and under the same terms, with `O=C1C=CC(=O)C(c2ccccc2)=C1` the figure was 1.95; with `c1ccc(C2CCCN2)cc1` (stereo unspecified), 1.89; with `c1ccc(-c2nc[nH]n2)cc1`, 1.54. Still for that read-out and setting: as for `O=C1NC(=O)C(c2ccccc2)C(=O)N1`, the figure is -0.17; as for `O=c1[nH]c2ccccc2cc1-c1ccccc1`, 2.99.
